A short description of series [1]: Complex stability (transmetallation with Zn2+, proton relaxometry). The format is physicochemical. As to conditions: 72 hours, 2.5 mM Zn2+, 26 mM phosphate buffer, 37°C, pH 7.4; 1.41 T. As for the experimental part:
The used method is described elsewhere (Laurent S et al., Stability of MRI paramagnetic contrast media: a proton relaxometric protocol for transmetallation assessment. Invest Radiol. 2001 Feb;36(2):115-22). In brief: A solution containing 2.5 mmol/L of test compound and 2.5 mmol/L ZnCl2 in 26 mM phosphate buffer (KH2PO4 Merck; 1.09439.1000, #HC748513, pH 7,00), was incubated at 37°C over a period of at least 3 days. If test compounds are instable under these conditions, transmetallation during this test would lead to the formation of the Zn^2+ complex of the test item, while Gd^3+ is released and precipitated as highly insoluble GdPO4.
After 3d of incubation T1 relaxation time was observed. […] Table 2: Transmetallation stability [%] of paramagnetic contrast agents over 72 hours (2.5 mM Zn2+, 26 mM phosphate buffer, 37°C, pH 7.4).

Another series addresses T1, OATP1B3 (Homo sapiens, UniProt Q9NPD5).
T1 sequence (Q9NPD5 1-702): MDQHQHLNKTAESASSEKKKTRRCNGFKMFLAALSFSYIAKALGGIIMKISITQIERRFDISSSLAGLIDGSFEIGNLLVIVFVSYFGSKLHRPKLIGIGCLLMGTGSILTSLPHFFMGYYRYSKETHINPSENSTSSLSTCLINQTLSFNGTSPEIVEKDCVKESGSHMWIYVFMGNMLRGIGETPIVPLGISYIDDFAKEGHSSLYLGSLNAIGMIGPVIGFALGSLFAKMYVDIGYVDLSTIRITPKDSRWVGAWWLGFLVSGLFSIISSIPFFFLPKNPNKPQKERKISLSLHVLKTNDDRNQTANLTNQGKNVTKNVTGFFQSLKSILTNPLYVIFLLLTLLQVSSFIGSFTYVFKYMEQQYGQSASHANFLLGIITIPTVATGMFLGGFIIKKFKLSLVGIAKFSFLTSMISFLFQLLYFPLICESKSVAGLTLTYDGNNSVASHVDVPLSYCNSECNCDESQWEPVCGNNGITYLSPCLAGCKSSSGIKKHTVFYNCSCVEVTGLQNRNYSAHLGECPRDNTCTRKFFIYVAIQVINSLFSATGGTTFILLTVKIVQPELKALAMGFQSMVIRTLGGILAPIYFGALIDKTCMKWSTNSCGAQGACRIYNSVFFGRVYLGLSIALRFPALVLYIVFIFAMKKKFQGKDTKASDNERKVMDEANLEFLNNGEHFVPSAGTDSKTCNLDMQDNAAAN
As to the kind of experiment: Uptake into stable transfected OATP1B3 HEK 293 cells. In kind it is cell-based. As to conditions: OATP1B3-HEK 293 cell uptake with Rifampicine.

Series [2] can be described thus: Relaxivity measurements at 1.41 T in water and human plasma. In kind it is physicochemical. As to conditions: 37°C, normalized to Gd. As for the experimental part:
Relaxivity measurements at 1.41 T were performed using a MiniSpec mq60 spectrometer (Bruker Analytik, Karlsruhe, Germany) operating at a resonance frequency of 60 MHz and a temperature of 37°C. The T1 relaxation times were determined using the standard inversion recovery (IR) method with a fixed relaxation delay of at least 5 × T1. The variable inversion time (TI) was calculated automatically by the standard software of the MiniSpec mq60 (8 steps). The T2 measurements were performed by using a Carr-Purcell-Meiboom-Gill (CPMG) pulse sequence, applying a relaxation delay of at least 5 × T1.
Each relaxivity measurement was performed using three different Gd concentrations (3 concentrations between 0.05 and 2 mM). The T1 and T2 relaxation times of the example compounds 1 to 10 were measured in different media for example in water and human plasma. Human plasma preparation: For each experiment fresh blood was taken from a volunteer using 10 mL citrate-tubes (Sarstedt S-Monovette 02.1067.001, 10 mL, Citrate). The 10 mL citrate-tubes were carefully inverted 10 times to mix blood and anticoagulant and centrifuged for 15min at 1811 g at RT (Eppendorf, Centrifuge 5810R).
The relaxivities ri (where i=1, 2) were calculated based on the measured relaxation rates Ri in water and plasma: ri = (Ri−Ri(0))/CGd [formula] where Ri(0) represent the relaxation rate of the respective solvent and CGd the concentration of the compound normalized to the Gadolinium. The Gadolinium concentrations of the investigated solutions were verified by Inductively Coupled Plasma Mass Spectrometry (ICP-MS Agilent 7500a, Waldbronn, Germany). Table 3: Relaxivities of investigated compounds in water and human plasma at 1.41 T and relaxivities of Reference compounds 1-3 (RC1-RC3) at 1.5 T in water and bovine plasma. All values are measured at 37°C and normalized to Gd and given in L mmol-1 s-1.

The target in another series is T2, OATP1B1 (Homo sapiens, UniProt Q9Y6L6).
T2 sequence (Q9Y6L6 1-691): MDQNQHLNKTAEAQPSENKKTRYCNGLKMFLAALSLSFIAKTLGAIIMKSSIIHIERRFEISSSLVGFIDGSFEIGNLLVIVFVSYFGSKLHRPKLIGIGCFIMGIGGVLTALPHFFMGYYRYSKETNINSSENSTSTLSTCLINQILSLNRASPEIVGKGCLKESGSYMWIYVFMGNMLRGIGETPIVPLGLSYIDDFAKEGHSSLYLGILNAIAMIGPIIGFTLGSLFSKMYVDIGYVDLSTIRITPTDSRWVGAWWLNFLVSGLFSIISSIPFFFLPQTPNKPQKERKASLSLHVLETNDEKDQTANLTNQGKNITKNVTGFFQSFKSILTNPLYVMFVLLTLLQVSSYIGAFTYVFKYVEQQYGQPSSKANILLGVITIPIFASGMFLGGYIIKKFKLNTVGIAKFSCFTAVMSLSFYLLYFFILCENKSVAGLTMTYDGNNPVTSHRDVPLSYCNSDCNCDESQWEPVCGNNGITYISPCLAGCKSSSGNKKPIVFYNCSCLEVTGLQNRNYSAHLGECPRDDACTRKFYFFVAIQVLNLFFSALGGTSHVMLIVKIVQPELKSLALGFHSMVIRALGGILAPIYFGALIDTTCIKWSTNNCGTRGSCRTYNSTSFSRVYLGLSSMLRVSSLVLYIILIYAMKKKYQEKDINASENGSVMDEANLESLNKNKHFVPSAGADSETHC
In words: Uptake into stable transfected OATP1B1 HEK 293 cells. In kind it is cell-based. As to conditions: OATP1B1-HEK 293 cell uptake with Rifampicine.

The nature of series [3]: Water solubility in aqueous buffer. In kind it is physicochemical. As to conditions: aqueous buffer 10 mM Tris-HCl, pH 7.4, 20°C; Gd by ICP-MS. On the procedure: The exploratory water solubility of the compounds is determined at room temperature (20°C) in 0.5 mL buffer solution (10 mM Tris-HCI, pH 7.4) in the microcentrifuge tubes (Eppendorf, 2.0 mL safe-lock caps). The solid compounds were added stepwise to the buffer solution. More substance is added once all the suspended material is dissolved until an equilibrium between undissolved and dissolved substance is reached. The suspension was mixed using a shaker (Heidolph Reax 2000) and treated 5 min in an ultrasound bath (Bandelin, Sonorex Super RK255H). The Gadolinium concentration of the test substance in the clear solution is measured by ICP-MS. Table 1: Solubilities of compounds in aqueous buffer at 20°C (pH 7.4).

For series [4], the system named is freshly isolated rat hepatocytes. In words: Uptake into freshly isolated rat hepatocytes. As to conditions: rat hepatocyte uptake with OATP1B1/1B3 inhibitor Rifampicine, test item and inhibitor each 100 µM.
Description: The rat hepatocytes were incubated (2.5 ·10^5 cells/well) for 2.5 to 4h in collagen coated 24-well plates (Fa. Beckton Dickinson Biocoat, cell environments, Collagen I Cellware) in Williams E-medium (Fa. Sigma W1878) in an incubator (37°C, 5% CO2 and 95% oxygen). After incubation the adherent hepatocytes were washed once with 37°C Hepes carbonate transport buffer (500 µL/well). The test items and RC1 were prepared from stock solutions (180 to 500 mM concentration) in Hepes carbonate transport buffer at pH 7.4 to reach a final concentration of 100 µmοl Gd/L. The specific uptake of the test item or RC1 into rat hepatocytes via OATP1 B1 and OATP1 B3 was challenged using a known OATP1B1/1B3 inhibitor (Rifampicine, Fa. Sigma R3501, test item and inhibitor 1:1 each 100 µM final concentration). The prepared rat hepatocyte plates were incubated with test solutions (500 µL/well) at 37°C for 10 min using a thermoshaker (Fa. Grant Bio, PHMP). Triplicates were performed for each test item. After incubating the cells were washed once with cold PBS buffer (Fa. Gibco, Dulbeccos PBS (+)). After washing the intact hepatocytes were lysed by addition of 500 µL cold 0.01 % Triton-X 100 in Millipore water for 1h. […] After 1h 500 µL of 10 nM Terbium ICP-MS standard was added in 2% nitric acid and 0.01% Triton 100 before the Gadolinium concentrations in the lysate were measured using ICP-MS (Agilent 8900, singleQuad, integr. Time 0.3 s, no gas, 5 replicates, Gd m/z 157, Tb m/z 159). As a reference standard RC1 is used in the same well plate. The hepatocyte uptake of the test compound is calculated relative to RC1 (resulting in the unit % of RC1).
Series [5] in a line: No-observed-adverse-effect level (NOAEL), intravenous bolus. As to conditions: mice, intravenous bolus via tail vein, dose levels up to 2.5 mmol Gd/kg bw.

A value given as a limit tells only on which side of the number the result lay.

Take `CCOc1ccc(CC2CN(CC(=O)[O-])CCN(CC(=O)[O-])CCN(CC(=O)O)CCN2CC(=O)[O-])cc1.[Gd+3]` (stereo not drawn) [Example 7, Gadolinium-2,2',2"-[10-(carboxymethyl)-2-(4-ethoxybenzyl)-1,4,7,10-tetraazacyclododecane-1,4,7-triyl]triacetate]: in series [1], the “Stability (transmetallation stability, T1 relaxation rates R1n/R10)” value is recorded as 98%. For the same compound, the “Inhibition Rifampicine” value is on record as 95 % inhibition at OATP1B3, 78 % inhibition at OATP1B1 and 96 % inhibition in series [4]. In series [2], this compound showed a r1 human plasma of 6.2 L/mmol/s. Moreover, the r1 water in series [2] was determined as 4.5 L/mmol/s. Further, the Solubility (commonly the dissolved amount per volume that the medium holds) in series [3] was over 403 mM. Further, the no-observed-adverse-effect level (NOAEL) (as a rule, the highest tested level that showed no adverse finding) in series [5] is on record as 1.50 mmol Gd/kg bw.
`CCOCCOc1ccc(C[C@H]2CN(CC(=O)[O-])CCN(CC(=O)[O-])CCN(CC(=O)O)CCN2CC(=O)[O-])cc1.[Gd+3]` [Example 4]: the “Inhibition Rifampicine” value is on record as 97 % inhibition on OATP1B3, 29 % inhibition on OATP1B1 and 94 % inhibition in series [4]. The same compound showed a r1 human plasma in series [2] of 6.6 L/mmol/s. The compound also gave a r1 water in series [2] of 4.8 L/mmol/s. In series [3], this compound returned a Solubility of over 738 mM. This compound also gave an NOAEL in series [5] of 2.50 mmol Gd/kg bw.

These data come from patent EP4335840A1, “NEW CONTRAST AGENTS FOR USE IN DIAGNOSTIC IMAGING” (priority 2022, dated 2024).
